The test system of the assay is rats fed with cholesterol. The experiment in a line: in vivo antihyperlipoproteinemic test, rats fed cholesterol fodder for 7 days (Table 1). Also noted: species or system Whistar hannover male rats. To be noted: rat; for change in vivo at 30 mg/kg / change in vivo at 100 mg/kg: po; for change in vivo at 30 mg/kg: 30.0 mg/kg p.o.; for change in vivo at 100 mg/kg: 100.0 mg/kg p.o. The source says:
Whistar hannover male rats weighing 140-160 g were fed for 7 days with a rat fodder supplemented with 1.5% of cholesterol, 0.5% of sodium cholate and 5% of solid fat. (Schurr, P. E.; Schultz, J. R., Day, D. E.; Atherosclerosis Drug Discovery Ed.: C. E. Day, Plenum, New York 215 (1976) and Acta Pharm. Hung., 49, 182. (1979) During this time the total cholesterol level of the serum increased with 200-250% compared to the normal level, while the amount of the HDL chloesterol diminished by 45-50%. Groups consisting of six animals were formed. The compounds of the invention were administered orally starting on the fourth day of the addition of the cholesterol fodder and it was continued by the end of the experiments, by the seventh day, in one or two doses. Then after a 18 hour starving the animals were bled to death under etheric narcosis on the 8th day. The blood samples were centrifuged and the serum total cholesterol and the HDL cholesterol were determined by Backmann enzymatic test, while the triglyceride concentration of the serum was determined by Van Handel's method (J. Lab.: Clin. Med. 41, 486 (1953). The amount of the LDL+VLDL was measured by manganese precipitation turbidimetrically (Schurr, P. E., Schulz, J. R., Day, C. E.: Atherosclerosis Drug Discovery Ed.: C. E. Day, Plenum Press, New York 215 (1976). The antiaggreagtion activity was measured in vitro on human plasm being rich in thrombocytes by a Chrono-log aggregometer. The aggregation was induced by ADP, adrenaline, collagen and arachidonic acid. […]. The lipidperoxidation was induced by N-ethyl-alenicimide (Arzneimittel-Forschung 29, 981 (1979).

[1] abbreviates: read-out: HDL cholesterol % change.
The mark [2] stands for this setting: read-out: serum cholesterol change.
Setting [3] is: serum, read-out: triglyceride change.

Molecules are shown by their SMILES. Where a name gives a salt, the structure may show the parent alone. Read-outs that look alike come from different tables or passages of the source.

`CC(=O)CCn1c(=S)n(CCC(C)=O)c2cc(Cc3ccccc3)ccc21` [compound 0200058, 1,3-bis(3-Oxo-butyl)-5-benzyl-2-thioxo-benzimidazole]: the change in vivo at 30 mg/kg under setting [1] was found to be 30%, the change in vivo at 30 mg/kg (read-out: LDL + VLDL % change) was -19.4%, the change in vivo at 30 mg/kg under setting [2] is -14% and the change in vivo at 30 mg/kg under setting [3] is 1%. The change in vivo at 100 mg/kg was 44.9% under setting [1], -9.4% (read-out: LDL + VLDL % change), -10.6% under setting [2] and 12.8% under setting [3]. Besides, the “increase of HDL(-cholesterol)” value (100 mg/kg) is recorded as 45%. Further, the “total cholesterol of the serum, in words” value (100 mg/kg) is recorded as “smaller decrease of the level of the total cholesterol of the serum”.

With `CCOC(=O)CC(=O)CSc1nc2ccc(Cc3ccccc3)cc2[nH]1` [compound 0203232, 4-[(5-Benzyl-2-benzimidazolyl)thio]acetoacetic acid ethylester hydrochloride], the change in vivo at 30 mg/kg was 6.8% under setting [1], -27.6% (read-out: LDL + VLDL % change), -32.1% under setting [2] and 29.3% under setting [3]. In addition, the change in vivo at 100 mg/kg runs as follows: under setting [1], 6.8%; (read-out: LDL + VLDL % change) -45.9%; under setting [2], -48.6%; under setting [3], -18.3%.

Turning to `CC(=O)CSc1nc2ccc(Cc3ccccc3)cc2[nH]1` [compound 0202002, 1-((5-benzyl-2-benzimidazolyl)thio)-2-propanone], the change in vivo at 30 mg/kg reads like this: under setting [1], -16.9%; (read-out: LDL + VLDL % change) -0.38%; under setting [2], -22%; under setting [3], 27.8%. The change in vivo at 100 mg/kg reads like this: under setting [1], -16.9%; (read-out: LDL + VLDL % change) -55.8%; under setting [2], -68%; under setting [3], -29.4%.

For the molecule `OCCSc1nc2ccc(Cc3ccccc3)cc2[nH]1` [compound 0202377, 5-Benzyl-2-(2-hydroxyethylthio)-benzimidazole], under setting [1], the change in vivo at 30 mg/kg is -13.5% and the change in vivo at 100 mg/kg was 61.2%. Further, under “read-out: LDL + VLDL % change”, the change in vivo at 30 mg/kg was found to be 1% and the change in vivo at 100 mg/kg was -14.5%. Further, under setting [2], the change in vivo at 30 mg/kg was -36.5% and the change in vivo at 100 mg/kg was -52.4%. In addition, under setting [3], the change in vivo at 30 mg/kg was 58% and the change in vivo at 100 mg/kg came out at 116%. In addition, for the setting “100 mg/kg”, the “LDL+VLDL level, in words” value was “decreased is smaller extent”; the “decrease of the total serum cholesterol level” value was 52.4; the “increase of HDL(-cholesterol)” value is given as 61.2%.

`OCCCSc1nc2ccc(Cc3ccccc3)cc2[nH]1` [compound 0202367, 5-Benzyl-2-(3-hydroxypropylthio)-benzimidazole]: the change in vivo at 30 mg/kg reads like this: under setting [1], 47.1%; (read-out: LDL + VLDL % change) -45.2%; under setting [2], -37.4%; under setting [3], -19%. Moreover, the change in vivo at 100 mg/kg runs as follows: under setting [1], 26%; (read-out: LDL + VLDL % change) -50.7%; under setting [2], -42.6%; under setting [3], -16.1%.

`C#CCSc1nc2ccc(Cc3ccccc3)cc2[nH]1` [compound 0202647, 5-Benzyl-2-(2-propinylthio)-benzimidazole]: where the note is “100 mg/kg”, the “decrease of the LDL+VLDL level” value is on record as 41.5; the “decrease of the total serum cholesterol level” value stood at 34.5; the “increase of HDL(-cholesterol)” value was found to be 49%; the “overall lipid/lipoprotein activity, in words” value is “especially excellent activity”.

With `Br.C=CCSc1nc2ccc(Cc3ccccc3)cc2[nH]1` [compound 0202154, 5-Benzyl-2-(2-propenylthio)-benzimidazole hydrobromide], under setting [1], the change in vivo at 30 mg/kg turned out to be 27% and the change in vivo at 100 mg/kg worked out at 71.3%. For the same molecule, for the setting “read-out: LDL + VLDL % change”, the change in vivo at 30 mg/kg was -38.1% and the change in vivo at 100 mg/kg was -57.5%. In addition, under setting [2], the change in vivo at 30 mg/kg is -34.5% and the change in vivo at 100 mg/kg is -49.3%. Under setting [3], the change in vivo at 30 mg/kg is -30% and the change in vivo at 100 mg/kg was -25.3%. Under “100 mg/kg”, the “decrease of the LDL+VLDL level” value stood at 57.5%, the “decrease of the serum triglyceride” value is 25.3%, the “decrease of the total serum cholesterol level” value is 49.3% and the “increase of HDL(-cholesterol)” value came out at 71.3%. Moreover, the “overall lipid/lipoprotein activity, in words” value (100 mg/kg) is given as “very effective”.

Regarding `O=C(O)CC(Sc1nc2ccc(Cc3ccccc3)cc2[nH]1)C(=O)O` (stereo not drawn) [compound 0200131, S-(5-Benzyl-2-benzimidazolyl)-2-thio-succinic acid], the change in vivo at 30 mg/kg under setting [1] amounted to 10%, the change in vivo at 30 mg/kg (read-out: LDL + VLDL % change) was -17.5%, the change in vivo at 30 mg/kg under setting [2] is -17.4% and the change in vivo at 30 mg/kg under setting [3] is -18.8%. The change in vivo at 100 mg/kg is 57% under setting [1], -5.9% (read-out: LDL + VLDL % change), -16.9% under setting [2] and -25.4% under setting [3].

`CC(=O)CCn1c(=S)[nH]c2cc(Cc3ccccc3)ccc21` [compound 0200427, 1-(5-Benzyl-2-thioxo-1-benzimidazolyl)-3-butanone]: under setting [1], the change in vivo at 30 mg/kg was -17.7% and the change in vivo at 100 mg/kg was -12.1%. Further, where the note is “read-out: LDL + VLDL % change”, the change in vivo at 30 mg/kg was -58.2% and the change in vivo at 100 mg/kg is -54.4%. Moreover, under setting [2], the change in vivo at 30 mg/kg is -45.5% and the change in vivo at 100 mg/kg was -51.7%. Under setting [3], the change in vivo at 30 mg/kg was -63.5% and the change in vivo at 100 mg/kg was -67.2%. Moreover, where the note is “100 mg/kg”, the “HDL level, in words” value is “decreased the HDL level, though in smaller extent”; the “decrease of the LDL+VLDL level” value is listed as 54.4%; the “decrease of the serum triglyceride” value turned out to be 67.2%; the “decrease of the total serum cholesterol level” value is on record as 51.7%. Besides, the “overall lipid/lipoprotein activity, in words” value (100 mg/kg) is given as “Especially great serum lipid decreasing activity”.

As to `O=C(O)CC(Sc1nc2ccc(C(=O)c3ccccc3)cc2[nH]1)C(=O)O` (stereo not drawn) [compound 0200086, S-(5-Benzoyl-2-benzimidazolyl)-2-thio-succinic acid], the change in vivo at 30 mg/kg runs as follows: under setting [1], -35%; (read-out: LDL + VLDL % change) -22.1%; under setting [2], -26%; under setting [3], -24.9%. In addition, the change in vivo at 100 mg/kg runs as follows: under setting [1], 19.4%; (read-out: LDL + VLDL % change) -24.8%; under setting [2], -35.4%; under setting [3], -27.2%.

The values above are taken from patent US4814329A, “Antihyperlipoproteinemic 5-substituted sulfur-containing benzimidazole derivatives” (Richter Gedeon Vegyeszeti Gyar R.T., priority 1985, dated 1989).
